Measured values taken from the NIST ThermoML archive (doi:10.1021/je030151s).
± gives the expanded uncertainty stated by the source.

Assay: xn = mol fraction of the nth substance listed
Conditions: 101.3 kPa, Liquid; for viscosity: Capillary tube (Ostwald / Ubbelohde) method

CCC(=O)CC [pentan-3-one] + Cc1ccccc1C
viscosity (293.15 K, x1 = 0.0955): 0.7649 ± 0.0094 mPa·s
viscosity (293.15 K, x1 = 0.2073): 0.7182 ± 0.0089 mPa·s
viscosity (293.15 K, x1 = 0.3191): 0.675 ± 0.0084 mPa·s
viscosity (293.15 K, x1 = 0.4298): 0.636 ± 0.008 mPa·s
viscosity (293.15 K, x1 = 0.5338): 0.6001 ± 0.0076 mPa·s
viscosity (293.15 K, x1 = 0.6363): 0.568 ± 0.0073 mPa·s
viscosity (293.15 K, x1 = 0.7329): 0.537 ± 0.007 mPa·s
viscosity (293.15 K, x1 = 0.8283): 0.51 ± 0.0067 mPa·s
viscosity (293.15 K, x1 = 0.9242): 0.4882 ± 0.0065 mPa·s
viscosity (293.15 K, x1 = 1): 0.4714 ± 0.0064 mPa·s
mass density (293.15 K, x1 = 0.0955): 878 ± 1.2 kg/m3
speed of sound (293.15 K, x1 = 0.0955): 1357 ± 3.5 m/s
mass density (293.15 K, x1 = 0.2073): 875 ± 1.2 kg/m3
speed of sound (293.15 K, x1 = 0.2073): 1345.1 ± 3.5 m/s
mass density (293.15 K, x1 = 0.3191): 871.1 ± 1.2 kg/m3
speed of sound (293.15 K, x1 = 0.3191): 1333.5 ± 3.5 m/s
mass density (293.15 K, x1 = 0.4298): 865.3 ± 1.2 kg/m3
speed of sound (293.15 K, x1 = 0.4298): 1318.8 ± 3.5 m/s
mass density (293.15 K, x1 = 0.5338): 859.5 ± 1.2 kg/m3
speed of sound (293.15 K, x1 = 0.5338): 1306 ± 3.4 m/s
mass density (293.15 K, x1 = 0.6363): 852.1 ± 1.1 kg/m3
speed of sound (293.15 K, x1 = 0.6363): 1292.2 ± 3.4 m/s
mass density (293.15 K, x1 = 0.7329): 845 ± 1.1 kg/m3
speed of sound (293.15 K, x1 = 0.7329): 1279.4 ± 3.4 m/s
mass density (293.15 K, x1 = 0.8283): 836.8 ± 1.1 kg/m3
speed of sound (293.15 K, x1 = 0.8283): 1266.2 ± 3.4 m/s
mass density (293.15 K, x1 = 0.9242): 826.3 ± 1.1 kg/m3
speed of sound (293.15 K, x1 = 0.9242): 1250.9 ± 3.4 m/s
mass density (293.15 K, x1 = 1): 814.4 ± 1.1 kg/m3
speed of sound (293.15 K, x1 = 1): 1230.7 ± 3.3 m/s
viscosity (303.15 K, x1 = 0.0955): 0.677 ± 0.0084 mPa·s
viscosity (303.15 K, x1 = 0.2073): 0.638 ± 0.008 mPa·s
viscosity (303.15 K, x1 = 0.3191): 0.6003 ± 0.0077 mPa·s
viscosity (303.15 K, x1 = 0.4298): 0.562 ± 0.0073 mPa·s
viscosity (303.15 K, x1 = 0.5338): 0.5271 ± 0.0069 mPa·s
viscosity (303.15 K, x1 = 0.6363): 0.497 ± 0.0066 mPa·s
viscosity (303.15 K, x1 = 0.7329): 0.4719 ± 0.0064 mPa·s
viscosity (303.15 K, x1 = 0.8283): 0.4481 ± 0.0061 mPa·s
viscosity (303.15 K, x1 = 0.9242): 0.4333 ± 0.006 mPa·s
viscosity (303.15 K, x1 = 1): 0.4231 ± 0.0059 mPa·s
mass density (303.15 K, x1 = 0.0955): 870.5 ± 1.2 kg/m3
speed of sound (303.15 K, x1 = 0.0955): 1328 ± 3.5 m/s
mass density (303.15 K, x1 = 0.2073): 868.5 ± 1.2 kg/m3
speed of sound (303.15 K, x1 = 0.2073): 1315 ± 3.5 m/s
mass density (303.15 K, x1 = 0.3191): 863.1 ± 1.2 kg/m3
speed of sound (303.15 K, x1 = 0.3191): 1303 ± 3.4 m/s
mass density (303.15 K, x1 = 0.4298): 857.3 ± 1.2 kg/m3
speed of sound (303.15 K, x1 = 0.4298): 1287 ± 3.4 m/s
mass density (303.15 K, x1 = 0.5338): 850.5 ± 1.2 kg/m3
speed of sound (303.15 K, x1 = 0.5338): 1272 ± 3.4 m/s
mass density (303.15 K, x1 = 0.6363): 844 ± 1.2 kg/m3
speed of sound (303.15 K, x1 = 0.6363): 1255.8 ± 3.4 m/s
mass density (303.15 K, x1 = 0.7329): 837.3 ± 1.2 kg/m3
speed of sound (303.15 K, x1 = 0.7329): 1245 ± 3.4 m/s
mass density (303.15 K, x1 = 0.8283): 829.1 ± 1.2 kg/m3
speed of sound (303.15 K, x1 = 0.8283): 1229 ± 3.3 m/s
mass density (303.15 K, x1 = 0.9242): 817 ± 1.2 kg/m3
speed of sound (303.15 K, x1 = 0.9242): 1213 ± 3.3 m/s
mass density (303.15 K, x1 = 1): 804.7 ± 1.1 kg/m3
speed of sound (303.15 K, x1 = 1): 1197.8 ± 3.3 m/s
viscosity (313.15 K, x1 = 0.0955): 0.5965 ± 0.0076 mPa·s
viscosity (313.15 K, x1 = 0.2073): 0.565 ± 0.0073 mPa·s
viscosity (313.15 K, x1 = 0.3191): 0.533 ± 0.007 mPa·s
viscosity (313.15 K, x1 = 0.4298): 0.502 ± 0.0067 mPa·s
viscosity (313.15 K, x1 = 0.5338): 0.474 ± 0.0064 mPa·s
viscosity (313.15 K, x1 = 0.6363): 0.447 ± 0.0061 mPa·s
viscosity (313.15 K, x1 = 0.7329): 0.424 ± 0.0059 mPa·s
viscosity (313.15 K, x1 = 0.8283): 0.4034 ± 0.0057 mPa·s
viscosity (313.15 K, x1 = 0.9242): 0.3872 ± 0.0056 mPa·s
viscosity (313.15 K, x1 = 1): 0.3799 ± 0.0055 mPa·s
mass density (313.15 K, x1 = 0.0955): 862.4 ± 1.3 kg/m3
speed of sound (313.15 K, x1 = 0.0955): 1287.6 ± 3.4 m/s
mass density (313.15 K, x1 = 0.2073): 859.4 ± 1.3 kg/m3
speed of sound (313.15 K, x1 = 0.2073): 1277 ± 3.4 m/s
mass density (313.15 K, x1 = 0.3191): 855 ± 1.3 kg/m3
speed of sound (313.15 K, x1 = 0.3191): 1262 ± 3.4 m/s
mass density (313.15 K, x1 = 0.4298): 848.8 ± 1.3 kg/m3
speed of sound (313.15 K, x1 = 0.4298): 1251 ± 3.4 m/s
mass density (313.15 K, x1 = 0.5338): 842.5 ± 1.3 kg/m3
speed of sound (313.15 K, x1 = 0.5338): 1238 ± 3.4 m/s
mass density (313.15 K, x1 = 0.6363): 835.5 ± 1.3 kg/m3
speed of sound (313.15 K, x1 = 0.6363): 1224 ± 3.3 m/s
mass density (313.15 K, x1 = 0.7329): 827.9 ± 1.2 kg/m3
speed of sound (313.15 K, x1 = 0.7329): 1208.3 ± 3.3 m/s
mass density (313.15 K, x1 = 0.8283): 819.9 ± 1.2 kg/m3
speed of sound (313.15 K, x1 = 0.8283): 1194 ± 3.3 m/s
mass density (313.15 K, x1 = 0.9242): 808.2 ± 1.2 kg/m3
speed of sound (313.15 K, x1 = 0.9242): 1179.3 ± 3.3 m/s
mass density (313.15 K, x1 = 1): 794.9 ± 1.2 kg/m3
speed of sound (313.15 K, x1 = 1): 1159.1 ± 3.3 m/s
